Target: FXa (Homo sapiens, UniProt P00742)
Assay: Factor Xa inhibition (FXa-IC50)
Type: biochemical
Source text: The inhibition of factor Xa by the compounds according to the invention and the measurement of the anticoagulant and antithrombotic activity can be determined by conventional in-vitro or in-vivo methods. A suitable method is described, for example, by J. Hauptmann et al. in Thrombosis and Haemostasis 1990, 63, 220-223.
The inhibition of factor Xa can be measured, for example by the method of T. Hara et al. in Thromb. Haemostas. 1994, 71, 314-319.

Chain of FXa (P00742 235-488 limits assumed): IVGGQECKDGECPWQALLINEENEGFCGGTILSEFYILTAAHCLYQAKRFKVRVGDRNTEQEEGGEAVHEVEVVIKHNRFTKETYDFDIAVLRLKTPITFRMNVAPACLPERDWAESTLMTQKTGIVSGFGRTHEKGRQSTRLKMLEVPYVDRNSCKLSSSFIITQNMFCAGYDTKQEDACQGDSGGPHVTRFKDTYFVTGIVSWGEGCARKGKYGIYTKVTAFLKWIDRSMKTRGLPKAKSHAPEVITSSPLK
Chain of FXa (P00742 41-179 limits assumed): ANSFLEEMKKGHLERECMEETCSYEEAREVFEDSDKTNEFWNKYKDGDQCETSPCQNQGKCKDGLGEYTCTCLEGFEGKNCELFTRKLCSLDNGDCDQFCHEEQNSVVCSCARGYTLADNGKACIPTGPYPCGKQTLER

Compound `Cc1cc(NC(=O)Nc2cc(O)ccc2NC(=O)Nc2ccc(Cl)cc2)ccc1N1CCOCC1=O` [Compound A1, 1-(4-chlorophenyl)-3-(4-hydroxy-2-{3-[3-methyl-4-(3-oxo-morpholin-4-yl)phenyl]ureido}phenyl)urea] has an IC50 of 12 nM.

With `Cc1cc(NC(=O)Nc2ccncc2NC(=O)Nc2ccc(Cl)cc2)ccc1N1CCOCC1=O` [Compound B0, 1-(4-Chlorophenyl)-3-(4-{3-[3-methyl-4-(3-oxomorpholin-4-yl)-phenyl]ureido}pyridin-3-yl)urea] the IC50 was 420 nM.
